Tests used:
Type in all cases: in vivo
Arabidopsis thaliana [1] = experiment: Herbicidal effect on upland weeds pre-emergence; settings: upland pre-emergence spray, 5 kg/ha, 14 days after treatment
Source text: (§1) Polyethylene-made vats having a size of 10 cm (length)×20 cm (width)×5 cm (height) were filled with soil, sown with seeds of Arabidopsis thialiana, bent grass (Agrostis spp.) and monochoria (Monochoria veginalis), and with seeds of wheat and soybean plant as upland crop plants, and then covered with soil. Then, a liquid preparation of an agent comprising a prescribed concentration of a compound obtained in Reference Example 1 as active ingredient was sprayed.
(§2) Fourteen days after the treatment, the herbicidal effect was investigated, from which weed-killing rate was calculated in the same manner as in Reference Example 2, and the herbicidal effect was judged.

[2] = tested on: bent grass (Agrostis spp.); experiment: Herbicidal effect on upland weeds pre-emergence; settings: upland pre-emergence spray, 5 kg/ha, 14 days after treatment
Source text: as §1, §2

[3] = tested on: monochoria (Monochoria veginalis); experiment: Herbicidal effect on upland weeds pre-emergence; settings: upland pre-emergence spray, 5 kg/ha, 14 days after treatment
Source text: as §1, §2

Arabidopsis thaliana [4] = experiment: Herbicidal effect on upland weeds after emergence; settings: after emergence (1 to 2 leaved stage) spray, 5 kg/ha, 14 days after treatment
Source text: (§3) Polyethylene-made vats having a size of 10 cm (length)×20 cm (width)×5 cm (height) were filled with soil, sown with the seeds of the upland weeds mentioned below and with seeds of soybean plant and wheat as upland crop plants, and then covered with soil. The plants were made to grow up until they reached the 1 to 2 leaved stage, after which an agent comprising a prescribed concentration of a compound obtained in Reference Example 1 as active ingredient was sprayed.
(§4) Fourteen days after the treatment, the herbicidal effect was investigated, from which weed-killing rate was calculated in the same manner as in Reference Example 2 and the results were judged. At the same time, phytotoxicity on soybean plant and wheat was investigated and judged in the same manner as in Reference Example 2.

[5] = tested on: bent grass (Agrostis spp.); experiment: Herbicidal effect on upland weeds after emergence; settings: after emergence (1 to 2 leaved stage) spray, 5 kg/ha, 14 days after treatment
Source text: as §3, §4

[6] = tested on: monochoria (Monochoria veginalis); experiment: Herbicidal effect on upland weeds after emergence; settings: after emergence (1 to 2 leaved stage) spray, 5 kg/ha, 14 days after treatment
Source text: as §3, §4

soybean plant [7] = experiment: Phytotoxicity on upland crop plants, after-emergence test; settings: after emergence spray, 5 kg/ha, 14 days after treatment
Source text: as §3, §4

wheat [8] = experiment: as above; settings: after emergence spray, 5 kg/ha, 14 days after treatment
Source text: as §3, §4

soybean plant [9] = experiment: Phytotoxicity on upland crop plants, pre-emergence test; settings: upland pre-emergence spray, 5 kg/ha, 14 days after treatment
Source text: as §1, §2
(§5) At the same time, phytotoxicity on soybean plant and wheat was investigated and judged according to the criterion mentioned in Reference Example 1.

wheat [10] = experiment: as above; settings: upland pre-emergence spray, 5 kg/ha, 14 days after treatment
Source text: as §1, §2, §5

paddy rice = experiment: Phytotoxicity on paddy rice (paddy field pre-emergence test); settings: 5 kg/ha, 21 days after treatment
Method: (§6) Soil was filled into 1/10000 are pots and brought into a state of paddy field, in which seeds of barnyard grass (Echinochloa crus-galli Beauv.) and bulrush (Scirpus juncoides Roxb.) were made to be before germination. The soil in the pots were treated with a solution containing a predetermined dosage of a chemical agent comprising a compound obtained in Reference Example 1 as the active ingredient.
(§7) Twenty one days after the treatment, the herbicidal effect was investigated, the result was compared with that in untreated plot to calculate the weedkilling rate, and the herbicidal effect was judged according to the following criterion.
At the same time, phytotoxicity on paddy rice was investigated, and judged according to the following criterion.

[11] = tested on: bulrush (Scirpus juncoides Roxb.); experiment: Herbicidal effect on paddy field weeds pre-emergence; settings: paddy soil treatment pre-emergence, 5 kg/ha, 21 days after treatment
Method: as §6, §7

[12] = tested on: barnyard grass (Echinochloa crus-galli Beauv.); experiment: as above; settings: paddy soil treatment pre-emergence, 5 kg/ha, 21 days after treatment
Method: as §6, §7

With CN(C)C(=O)Nc1ccc(C(F)(C(F)(F)F)C(F)(F)F)cc1 [Reference Example 1, 1,1-dimethyl-3-(4-heptafluoroisopropylphenyl)urea] the “herbicidal effect (rating)” value (Arabidopsis thaliana [1]) was 5 (Weedkilling rate is 100%.), the “herbicidal effect (rating)” value [2] was 4 (Weedkilling rate is 90–99%.) and the “herbicidal effect (rating)” value [3] was 5 (Weedkilling rate is 100%.). For the same compound, the “herbicidal effect (rating)” value (Arabidopsis thaliana [4]) was 5 (Weedkilling rate is 100%.), the “herbicidal effect (rating)” value [5] was 3 (Weedkilling rate is 70–89%.) and the “herbicidal effect (rating)” value [6] was 3 (Weedkilling rate is 70–89%.). The “phytotoxicity (rating)” value (soybean plant [7]) was 0 (Weedkilling rate is 0–20 (No phytotoxicity).), the “phytotoxicity (rating)” value (wheat [8]) was 0 (Weedkilling rate is 0–20 (No phytotoxicity).) and the “phytotoxicity (rating)” value (soybean plant [9]) was 0 (Weedkilling rate is 0–20 (No phytotoxicity).). The “phytotoxicity (rating)” value (wheat [10]) was 0 (Weedkilling rate is 0–20 (No phytotoxicity).), the “phytotoxicity (rating)” value (paddy rice) was 0 (Weedkilling rate is 0–20 (No phytotoxicity).) and the “herbicidal effect (rating)” value [11] was 2 (Weedkilling rate is 40–69%.). For the same compound, the “herbicidal effect (rating)” value [12] was 4 (Weedkilling rate is 90–99%.).

Source: patent US7169955B2, “Perfluoroisopropylbenzene derivative” (Nihon Nohyaku Co., Ltd., priority 2000, dated 2007)
